Results as given in patent US9328374B2, “Selective culture medium and method for detecting carbapenem-resistant bacteria in a test sample” (Institut National de la Sante et de la Recherche Medicale …, priority 2011, dated 2016).

Tested on: K. pneumoniae
Assay: MIC of imipenem, ertapenem and meropenem
Type: cell-based, Klebsiella pneumoniae

C[C@@H](O)[C@H]1C(=O)N2C(C(=O)O)=C(SCCN=CN)C[C@H]12 [IPM, imipenem]
MIC (K. pneumoniae 1 OMA (NDM-1 + CTX-M-15 + OXA-1 + OXA-9)): >32 µg/mL
MIC (K. pneumoniae 2 OLA (NDM-1 + OXA-1)): 1.5 µg/mL
MIC (K. pneumoniae 7 AFR (NDM-1 + OXA-1 + CTX-M-15 + CMY-6 + TEM-1)): >32 µg/mL
MIC (K. pneumoniae 7AFR, NDM-1 + TEM-1 + CTX-M-15 + CMY-6 + OXA-1): >32 µg/mL
MIC (K. pneumoniae 0227, SHV-1, non-carbapenemase producer): 0.19 µg/mL
MIC (K. pneumoniae 588, KPC-2 + TEM-1 + SHV-11 + OXA-9): 24 µg/mL
MIC (K. pneumoniae 1022, SHV-2a + SHV-28, non-carbapenemase producer): 0.5 µg/mL
MIC (K. pneumoniae 1025 (CTX-M-14 + TEM-1 + SHV-11)): 0.12 µg/mL
MIC (K. pneumoniae 1025, CTX-M-14 + TEM-1 + SHV-11, non-carbapenemase producer): 0.12 µg/mL
MIC (K. pneumoniae 2303, KPC-2 + SHV-11): >32 µg/mL
MIC (K. pneumoniae 6642 GEN (NDM-1 + CTX-M-15 + OXA-1 + OXA-10)): 1 µg/mL
MIC (K. pneumoniae 6642 GEN, NDM-1 + CTX-M-15 + OXA-1 + OXA-10): 1 µg/mL
MIC (K. pneumoniae 6759 GEN (NDM-1 + CTX-M-15 + OXA-1 + OXA-9 + OXA-10 + CMY16)): 12 µg/mL
MIC (K. pneumoniae 6759 GEN, NDM-1 + CTX-M-15 + CMY-16 + OXA-1 + OXA-9 + OXA-10): 12 µg/mL
MIC (K. pneumoniae 7725 (SHV-1)): 0.19 µg/mL
MIC (K. pneumoniae 7725, SHV-1, non-carbapenemase producer): 0.19 µg/mL
MIC (K. pneumoniae 10112, CTX-M-15 + TEM-1 + SHV-11, non-carbapenemase producer): 0.5 µg/mL
MIC (K. pneumoniae 0404020, VIM-1+ SHV-5): >32 µg/mL
MIC (K. pneumoniae 0404024, VIM-1): >32 µg/mL
MIC (K. pneumoniae 0511135, VIM-1+ SHV-12): >32 µg/mL
MIC (K. pneumoniae 648236 (SHV-2a)): 0.25 µg/mL
MIC (K. pneumoniae 648236, SHV-2a, non-carbapenemase producer, porin deficiency): 0.25 µg/mL
MIC (K. pneumoniae 0709121, IMP-1): 1.5 µg/mL
MIC (K. pneumoniae 0709124, IMP-1 + TEM-15): 8 µg/mL
MIC (K. pneumoniae 0709125, IMP-1 + TEM-1 + SHV-12): 1.5 µg/mL
MIC (K. pneumoniae 0709127, IMP-1 + TEM-1): 0.5 µg/mL
MIC (K. pneumoniae A28006, KPC-2 + TEM-1 + CTX-M-2 + SHV-11): 16 µg/mL
MIC (K. pneumoniae A33504, KPC-2 + TEM-1 + SHV-11 + CTX-M-2 + OXA-9): >32 µg/mL
MIC (K. pneumoniae AEL, OXA-48 + CTX-M-15 + SHV-28 + OXA-1): 0.5 µg/mL
MIC (K. pneumoniae ALE (CTX-M-15 + SHV-1)): 1 µg/mL
MIC (K. pneumoniae ALE, CTX-M-15 + SHV-1, non-carbapenemase producer, porin deficiency): 1 µg/mL
MIC (K. pneumoniae AMS (OXA-48 + TEM-1 + CTX-M-15 + OXA-1)): 0.5 µg/mL
MIC (K. pneumoniae AMS, OXA-48 + TEM-1 + CTX-M-15 + OXA-1): 0.5 µg/mL
MIC (K. pneumoniae BAJ (OXA-48 + TEM-1 + CTX-M-15 + SHV-28)): 0.5 µg/mL
MIC (K. pneumoniae BAJ, OXA-48 + TEM-1 + CTX-M-15 + SHV-28): 0.5 µg/mL
MIC (K. pneumoniae BED (CTX-M-15 + TEM-1 + SHV-1; Table 8: SHV-11)): 1.5 µg/mL
MIC (K. pneumoniae BED, CTX-M-15 + TEM-1 + SHV-11, non-carbapenemase producer, porin deficiency): 1.5 µg/mL
MIC (K. pneumoniae BEL (OXA-48)): 1 µg/mL
MIC (K. pneumoniae BEL, OXA-48): 1 µg/mL
MIC (K. pneumoniae BEN (OXA-48 + TEM-1 + CTX-M-15 + SHV-28)): 0.38 µg/mL
MIC (K. pneumoniae BEN, OXA-48 + TEM-1 + CTX-M-15 + SHV-28): 0.38 µg/mL
MIC (K. pneumoniae BER (TEM-1 + SHV-28)): 1 µg/mL
MIC (K. pneumoniae BER, SHV-28 + TEM-1, non-carbapenemase producer, porin deficiency): 1 µg/mL
MIC (K. pneumoniae BEY (OXA-48 + CTX-M-15 + TEM-1)): 0.38 µg/mL
MIC (K. pneumoniae BEY, OXA-48 + TEM-1 + CTX-M-15): 0.38 µg/mL
MIC (K. pneumoniae BIC (OXA-48)): 0.5 µg/mL
MIC (K. pneumoniae BIC, OXA-48): 0.5 µg/mL
MIC (K. pneumoniae BOU, OXA-48): 0.38 µg/mL
MIC (K. pneumoniae CHA (OXA-48 + TEM-1)): 0.38 µg/mL
MIC (K. pneumoniae CHA, OXA-48 + TEM-1): 0.38 µg/mL
MIC (K. pneumoniae COL (KPC-2 + TEM-1 + SHV-1 + CTX-M-15)): 4 µg/mL
MIC (K. pneumoniae COO (CTX-M-15 + SHV28)): 8 µg/mL
MIC (K. pneumoniae COO, CTX-M-15 + SHV-28, non-carbapenemase producer, porin deficiency): 8 µg/mL
MIC (K. pneumoniae DAL (OXA-48 + CTX-M-15 + TEM-1)): 0.38 µg/mL
MIC (K. pneumoniae DAL, OXA-48 + TEM-1 + CTX-M-15): 0.38 µg/mL
MIC (K. pneumoniae DIA, OXA-48 + TEM-1b + CTX-M-15 + SHV-11 + OXA-1): >32 µg/mL
MIC (K. pneumoniae DUW, OXA-48 + TEM-1 + CTX-M-15 + SHV-28): 32 µg/mL
MIC (K. pneumoniae EGY (OXA-48 + CTX-M-15)): 2 µg/mL
MIC (K. pneumoniae EGY, OXA-48 + CTX-M-15): 2 µg/mL
MIC (K. pneumoniae ELK (OXA-48 + TEM-1 + CTX-M-15 + SHV-11)): 0.5 µg/mL
MIC (K. pneumoniae ELK, OXA-48 + TEM-1 + CTX-M-15 + SHV-11): 0.5 µg/mL
MIC (K. pneumoniae ENN, VIM-1+ SHV-5): 0.5 µg/mL
MIC (K. pneumoniae FOS (CTX-M-15 + TEM-1 + SHV-11)): 6 µg/mL
MIC (K. pneumoniae FOS, CTX-M-15 + TEM-1 + SHV-11, non-carbapenemase producer, porin deficiency): 6 µg/mL
MIC (K. pneumoniae GES, KPC-2 + TEM-1 + SHV-11): 6 µg/mL
MIC (K. pneumoniae HOL (OXA-181 + CTX-M-15)): 1 µg/mL
MIC (K. pneumoniae HOL, OXA-181 + CTX-M-15): 1 µg/mL
MIC (K. pneumoniae HPA, OXA-48 + TEM-1 + CTX-M-15 + OXA-1): 1.5 µg/mL
MIC (K. pneumoniae IND (NDM-1 + OXA-1 + CTX-M-15)): 1 µg/mL
MIC (K. pneumoniae KAM, KPC-3 + TEM-1 + SHV-11): 8 µg/mL
MIC (K. pneumoniae KDH (DHA-2)): 0.12 µg/mL
MIC (K. pneumoniae KDH, DHA-2, non-carbapenemase producer, overexpressed AmpC): 0.12 µg/mL
MIC (K. pneumoniae KI2, NDM-1 + CTX-M-15 + OXA-1): 1 µg/mL
MIC (K. pneumoniae KIE, NDM-1 + SHV-38 + CMY-16 + OXA-10): 0.75 µg/mL
MIC (K. pneumoniae KPN (CTX-M-15)): 0.12 µg/mL
MIC (K. pneumoniae KPN, CTX-M-15, non-carbapenemase producer): 0.12 µg/mL
